Reference: paper PMC11211441, “Distributable, metabolic PET reporting of tuberculosis” (Nature Communications, 2024)
Values joined by “and” are separate entries in the source; they are usually repeats but may differ in a detail not shown here. Equal values may be shown once.

Key:
[1] = test system: mammalian (porcine) trehalase; assay: Trehalase degradation assay; format: in vitro ADME; settings: 0.3 units/mL trehalase, 10 mM substrate; for degradation by trehalase (Figure S5, released glucose): pH 5.7, 37 °C, 60 minutes
Description: The metabolic stabilities of the remaining three analogs, [^18F]FDT, 4-epi-[^18F]FDT and 6-[^18F]FDT were tested. Although, human trehalose-degrading trehalase activity is low and restricted primarily to the brush-border of the kidney where it is thought to be GPI-anchored[28],[32], it can be elevated in some diseases, therefore we also tested degradation of the analogs in vitro using high concentrations of mammalian (porcine) trehalase (0.3 units/mL, 10 mM substrate, Fig. S5). […]
Figure S5. Trehalase Assays.
Substrates were prepared to a final concentration of 10 mM in 0.05 M citric acid, pH 5.7 including trehalase stock solution (0.3 units/mL). The reaction mixture was incubated at 37 °C for 60 minutes, and then quenched with an equal volume of 0.1 M Tris, pH 7.5. Released glucose was measured with glucose assay kit (see Methods).

[2] = Human microsomal stability assay; settings: human, microsomes, pH 7.4, %Remaining, human liver microsomes
Description: Microsomal stability assay was carried out as described previously. In brief, 10 x reduced nicotinamide adenine dinucleotide phosphate (NADPH)-regenerating system was freshly prepared by dissolving 37.2 mg glucose-6-phosphate (Sigma) in 1 mL of 100 mM potassium phosphate buffer, 39.8 mg nicotinamide adenine dinucleotide phosphate (NADP, Sigma) in 1 mL of potassium phosphate buffer, 11.5 U glucose-6-phosphate dehydrogenase (Thermo) in 1 mL of potassium phosphate buffer and 26.8 mg MgCl2.6H2O (Sigma) in 1 mL of distilled water. All these solutions were combined and kept on ice. […] After 5 min, 18 µL of NADPH-regenerating system was added to initiate reaction. Immediately after adding the NADPH regenerating system, 50 µL, 0 min time point sample was taken and quenched with equal volume of ice-cold methanol. Similarly further samples were taken at 10 min, 30 min, 60 min, 90 min and 120 min. Samples were centrifuged at 10,000 g at 4 °C for 10 min. […] After incubating the reaction mix at 37 °C for 5 min, 36 µL of NADPH regenerating system was added to initiate the reaction. 50 µL samples were taken at 0 min, 2.5 min, 5 min, 10 min, 20 min, 40 min and 80 min and reactions were quenched by adding equal amount of ice-cold acetonitrile and kept on ice.

[3] = [19F]FDT clearance and in vivo stability in marmosets (plasma LC-MS, 19F NMR); design: species or system common marmosets; settings: common marmoset, plasma, iv, 20 mg, marmosets M1-M3 (duplicate measurements), 20 mg IV
Description: In order to determine [^19F]FDT metabolism in vivo, we assessed concentration vs time in two mammalian species: common marmosets and C57BL/6 mice. For marmosets weighing between 290.3–340.3 g, 20 mg of sterile-filtered FDT in PBS was injected IV (n = 3) and ~200 μL blood samples were taken from the femoral vein at 0 min, 5 min, 30 min, 60 min, 90 min and 180 min post injection. Samples were spun (4000 rcf for 10 mins at room temp) to separate red cell mass from plasma. Plasma portion was separated and stored at −80 °C for further analysis. Similarly, mice weighing from 18.7–20.5 g were injected (n = 5) with 5 mg of filter-sterilized FDT solution dissolved in PBS solution, pH 7.4. Mandibular blood samples were taken at 2 min, 15 min, 30 min and 45 min post injection. For the last sample in each mouse, the animal was bled out to get maximum sample for NMR analysis. Final urine samples were collected in 3 out of 5 mice through free catch. Blood samples were centrifuged (6500 rcf for 4 mins at room temp) to separate red cell mass from plasma, and plasma was separated and stored at −80 °C prior to analyzes.
Plasma samples from −80 °C were thawed on ice and mixed with 80% acetonitrile to precipitate plasma proteins and other biomolecules. Samples were centrifuged at 10,000 g, 4 °C for 10 min.
Figure S37. [19F]FDT Clearance and In Vivo Stability in Non-human Primates […]
A, B) 20 mg [19F]FDT was injected into marmosets (A, n=3 biological replicates, each measured in duplicate) and 5 mg FDT injected into mice (B, n=5 biological replicates, each measured in triplicate). […]
marmosets (A) and mice (B).
[19F]FDG was detected, consistent with the only low levels of metabolism seen with [18F]FDT in rabbits (see Figure S3G). C-F) We further analyzed the potential degradation of FDT into FDG by 19F NMR spectroscopy in marmoset plasma (C) sample from 5 min time point, mouse plasma (D) sample from 30 min time point and mouse urine samples from 30 min (E) and 45 min (F) time points, respectively. In all these samples only [19F]FDT was observed (d -201.2). The data points are average values from three replicates with error bars ± SD.
(1 picture or pasted object on this page, not shown here)

[4] = In vivo metabolism of 18F-labeled trehalose analogs in rabbits
Description: Finally, putative degradation was also probed directly in vivo using both Mtb-infected and naïve rabbits.
Blood (100 µL), urine (100–300 µL) and lesion samples were collected from animals and diluted 2:1 v/v with acetonitrile to sterilize them. These samples were then vortexed, centrifuged and the supernatant analyzed by either HPLC or TLC. The TLC silica gel plates used to assay these metabolism samples and lesion extracts were 150 Å Silica Gel HL 250 µm 10 ×20 cm channeled plates with a pre-adsorbent zone purchased from Analtech/iChromatography (Newark, DE). TLC plates were visualized via exposure to a phosphor screen for 16 h prior to imaging using a phosphor screen and Typhoon FLA7000 (GE Healthcare, Pittsburgh PA) or using a BioScan AR-2000 reader.

[5] = 1.5 hr voiding window; cited from earlier work
[6] = test system: Mtb-infected marmoset lung lesions; assay: PET/CT imaging of tracer uptake in marmoset TB model; format: in vivo; settings: for SUV/CMR / TGA/CMR: FDG, individual lesions
Description: Rabbits and marmosets at NIAID were anaesthetized and maintained during imaging[49],[67]. Syringes of FDG or FDT were measured in a dose calibrator immediately before and after injection, targeting = injected doses of 2 mCi/kg. During uptake and distribution of the probes, a CT scan from the base of the skull spanning the lungs and the upper abdominal cavity was acquired as described for each species on a helical eight-slice Neurological Ceretom CT scanner (NeuroLogicia, Danvers, MA) operated as part of a hybrid pre-clinical PET/CT system utilizing a common bed. The animal bed was then retracted into the microPET gantry (MicroPET Focus 220, Siemens Preclinical Solutions, Knoxville, TN) and sixty minutesβ ± 5 min post FDG injection, a series of 2 or 3, 10 min emission scans with 75 mm thick windows with a 25 mm overlap were acquired caudal to cranial. […] For the blocking studies, injections of 150 µg of [^19F]FDT synthesized as described above were administered 60 min and 5 min prior to the [^18F]-FDT tracer and the scans were acquired as before. Two animals were used in the blocking studies with one animal receiving the blocking agent while the other was administered saline only prior to the FDT tracer. Two days later, the administrations were reversed so that the second animal received the blocking agent. The emission data for all scans were processed and corrected. Cynomolgus macaques (n = 3) at the University of Pittsburgh were imaged using a Siemens microPET Focus 220 PET scanner and a Neurological Ceretom CT scanner. Paired FDG and FDT scans were collected on only 2 macaques pre-necropsy. Scans were viewed using OsiriX (Pixmeo, Geneva, Switzerland) to identify and analyze individual granulomas as described previously.
Dense lesion centers were subsequently identified for inclusion in the lung region manually and the program calculated the FDG signal parameters. In addition, each lesion within the lung was marked with a 3-D region of interest (ROI). In uninfected marmosets administered FDT, ROIs with a similar-volume (dia. 5 to 7 mm) were distributed in the lung as mock lesions according to the method of Ordonez et al.[70] and the SUV statistics for the ROIs were captured into excel sheets for analysis.

[7] = substrate: O=C[C@H](O)[C@@H](O)[C@H](O)[C@H](O)COP(=O)(O)O; assay: OtsA^Sf enzyme kinetic assay (NADH-linked continuous); format: biochemical, E. coli; settings: other: enzyme expressed from Spodoptera frugiperda, coupled-enzyme spectrophotometric assay, 25 °C, pH 7.5
Description: OtsA kinetic parameters were also determined by monitoring the formation of T6P by NADH-linked continuous assay.
60 °C with a nitrogen flush.
OtsA Enzyme kinetic assay
spectrophotometric assay.

Which degradation by trehalase [1] does the source give for OC[C@H]1O[C@H](O[C@H]2O[C@H](CO)[C@@H](O)[C@H](O)[C@H]2O)[C@H](O)[C@@H](O)[C@@H]1O [trehalose, reference compound] here?
The degradation by trehalase was “complete degradation”.

And the “degradation by trehalase (Figure S5, released glucose)” value [1]?
The value was 100.

With OC[C@H]1O[C@H](O[C@H]2O[C@H](CO)[C@@H](O)[C@H](O)[C@H]2F)[C@H](O)[C@@H](O)[C@@H]1O [FDT] as the molecule, how does the remaining at 0 h, 3 µM ([2]; 0 min) read?
The remaining at 0 h, 3 µM was 100%.

What about the remaining at 5 min, 3 µM ([2]; 5 min) of the same molecule?
The remaining at 5 min, 3 µM was 74.5%.

What about the remaining at 10 min, 3 µM ([2]; 10 min) of the same molecule?
Its remaining at 10 min, 3 µM is 58.5%.

What about the remaining at 20 min, 3 µM ([2]; 20 min) of the same molecule?
The remaining at 20 min, 3 µM was 55.3%.

What about the remaining at 40 min, 3 µM ([2]; 40 min) of the same molecule?
The remaining at 40 min, 3 µM was 56.6%.

What about the remaining at 2.5 min, 3 µM ([2]; […]) of the same molecule?
The remaining at 2.5 min, 3 µM was 80.1%.

What about the concentration at 5 min ([3]; 5 min post injection) of the same molecule?
The concentration at 5 min was 551 µM.

And the concentration at 30 min ([3]; 30 min post injection)?
Its concentration at 30 min is 250 µM.

What about the concentration at 61 min ([3]; 61 min post injection) of the same molecule?
The concentration at 61 min was 173 µM.

And the concentration at 93 min ([3]; 93 min post injection)?
Its concentration at 93 min is 97.1 µM.

For OC[C@H]1O[C@H](O[C@H]2O[C@H](CF)[C@@H](O)[C@H](O)[C@H]2O)[C@H](O)[C@@H](O)[C@@H]1O [6-[^19F]FDT], which degradation by trehalase [1] is on record?
Its degradation by trehalase is 14%.

And the “degradation by trehalase (Figure S5, released glucose)” value [1]?
The value was 14.

Which “epi-4-Ftre (%)” value ([4]; Control Rabbits, 0 min) does the source give for OC[C@H]1O[C@H](O[C@H]2O[C@H](CO)[C@H]([18F])[C@H](O)[C@H]2O)[C@H](O)[C@@H](O)[C@@H]1O [4-epi-[^18F]FDT] here?
Its value is 100%.

What about the “epi-4-Ftre (%)” value ([4]; Control Rabbits, 15 min) of the same molecule?
Its value is 87%.

What about the “epi-4-Ftre (%)” value ([4]; Control Rabbits, 30 min) of the same molecule?
Its value is 78%.

What about the “epi-4-Ftre (%)” value ([4]; Control Rabbits, 45 min) of the same molecule?
Its value is 87%.

What about the “epi-4-Ftre (%)” value ([4]; Control Rabbits, 60 min) of the same molecule?
The value was 73%.

What about the “epi-4-Ftre (%)” value ([4]; Control Rabbits, 90 min) of the same molecule?
The value was 82%.

What about the “epi-4-Ftre (%)” value ([4]; Control Rabbits, 120 min) of the same molecule?
Its value is 76%.

And the “epi-4-Ftre (%)” value ([4]; Control Rabbits, 180 min)?
Its value is 71%.

And the “epi-4-Ftre (%)” value ([4]; Infected Rabbits, 0 min)?
The value was 100%.

And the “epi-4-Ftre (%)” value ([4]; Infected Rabbits, 15 min)?
Its value is 89%.

What about the “epi-4-Ftre (%)” value ([4]; Infected Rabbits, 30 min) of the same molecule?
The value was 87%.

What about the “epi-4-Ftre (%)” value ([4]; Infected Rabbits, 45 min) of the same molecule?
Its value is 84%.

What about the “epi-4-Ftre (%)” value ([4]; Infected Rabbits, 60 min) of the same molecule?
Its value is 81%.

What about the “epi-4-Ftre (%)” value ([4]; Infected Rabbits, 90 min) of the same molecule?
Its value is 76%.

And the “epi-4-Ftre (%)” value ([4]; Infected Rabbits, 120 min)?
The value was 91%.

What about the “epi-4-Ftre (%)” value ([4]; Infected Rabbits, 180 min) of the same molecule?
Its value is 90%.

And the metabolism ([4]; rabbits, after 3 h)?
The metabolism was 30%.

Which results are given for “2-[^18F]fluoro-2-deoxy-D-glucose [[^18F]FDG]”?
dose, adrenals [5]: 0.013 mSv/MBq; dose, kidneys [5]: 0.020 mSv/MBq; dose, urinary bladder wall [5]: 0.086 mSv/MBq; SUV/CMR ([6]; 4 wks HRZE): 12.2544 and 1.845 and 5.193 and 8.368 and 5.63 and 1.286 and 5.952 and 5.153 and 7.3616; TGA/CMR ([6]; 4 wks HRZE): 11.4228 and 0.1147 and 1.936 and 8.84 and 2.799 and 0.1598 and 9.617 and 2.242 and 13.7241; SUV/CMR ([6]; Pre-Rx): 5.878 and 2.269 and 2.719 and 4.3218 and 3.722 and 2.294 and 3.185 and 2.868 and 3.6021; TGA/CMR ([6]; Pre-Rx): 7.811 and 0.2621 and 2.6706 and 8.989 and 4.301 and 0.5302 and 6.073 and 2.651 and 5.8274; uptake response to treatment (SUVs and TLG) ([6]; marmosets, 4 weeks HRZE): mixed, refractory and inconsistent uptake

What does the source list for OC[C@H]1O[C@H](O[C@H]2O[C@H](CO)[C@@H](F)[C@H](O)[C@H]2O)[C@H](O)[C@@H](O)[C@@H]1O [4-epi-[^19F]FDT]?
degradation by trehalase [1]: little or no degradation; degradation by trehalase (Figure S5, released glucose) [1]: 0

B1: OtsA^Sf (Escherichia coli K-12) (protein)
chain: MSRLVVVSNRIAPPDEHAASAGGLAVGILGALKAAGGLWFGWSGETGNEDQPLKKVKKGNITWASFNLSEQDLDEYYNQFSNAVLWPAFHYRLDLVQFQRPAWDGYLRVNALLADKLLPLLQDDDIIWIHDYHLLPFAHELRKRGVNNRIGFFLHIPFPTPEIFNALPTYDTLLEQLCDYDLLGFQTENDRLAFLDCLSNLTRVTTRSAKSHTAWGKAFRTEVYPIGIEPKEIAKQAAGPLPPKLAQLKAELKNVQNIFSVERLDYSKGLPERFLAYEALLEKYPQHHGKIRYTQIAPTSRGDVQAYQDIRHQLENEAGRINGKYGQLGWTPLYYLNQHFDRKLLMKIFRYSDVGLVTPLRDGMNLVAKEYVAAQDPANPGVLVLSQFAGAANELTSALIVNPYDRDEVAAALDRALTMSLAERISRHAEMLDVIVKNDINHWQECFISDLKQIVPRSAESQQRDKVATFPKLA
notes: His tag (type from Ni-NTA purification and anti-His blot) (C); made in house; host or cells: Spodoptera frugiperda Sf9 cells (Bac-to-Bac baculovirus)
With B1 as the molecule, how does the Km [7] read?
Its Km is 4.9 ± 0.5 mM.

And the kcat [7]?
The kcat was 57.5 ± 2.3 s⁻¹.

And the kcat/Km [7]?
Its kcat/Km is 11900 M⁻¹ s⁻¹.
